Measured values as given in patent publication US20240246905A1 (University of Leicester, priority 2021, published 2024).
Values after ≈ are worked out from the molar mass of the structure shown.

Key:
[1] = test system: HEK293 cells; assay: Cytotoxicity assay, resazurin (CO-ADD); conditions: set concentration of 32 μg/mL
Protocol: The cytotoxicity studies were performed by CO-ADD (The Community for Open Antimicrobial Drug Discovery), funded by the Wellcome trust (UK) and the University of Queensland, Australia.^(28) In this study, the compounds were screened against a human embryonic kidney cell line, HEK293, at a set concentration of 32 μg/mL.
DMEM supplemented with 10% FBS was used as growth media and the cells were incubated together with the compounds for 20 hours at 37° C. in 5% CO2.
Cytotoxicity (or cell viability) was measured by fluorescence, excitation: 560/10 nm, emission: 590/10 nm (F560/590), after addition of 5 μL of 25 μg/mL Resazurin (2.3 μg/mL final concentration) and after incubation for further 3 h at 37° C. in 5% CO2. The fluorescence intensity was measured using a Tecan M1000 Pro monochromator plate reader, using automatic gain calculation CC50 (concentration at 50% cytotoxicity) were calculated by curve fitting the inhibition values vs. log(concentration) using sigmoidal dose-response function, with variable fitting values for bottom, top and slope. The curve fitting was implemented using Pipeline Pilot's dose-response component.

[2] = test system: Escherichia coli DH5α; assay: Disc diffusion (Kirby-Bauer), zone of inhibition; type: cell-based; conditions: Escherichia coli DH5α; 500 μg/mL; '/' = no zone; read-out: Zone of inhibition
Protocol: (§1) E. coli DH5α, P. aeruginosa PA01 and the 53 S. aureus strains were recovered from frozen (−80° C.) glycerol (15% v/v) stocks on Lysogeny agar (LA)—Gram negative and trypticase soy agar (TSA)—plates at 37° C. for 24 hours. Single colonies were placed in either 3 mL Lysogeny broth (LB)—Gram negative or trypticase soy broth (TSB)—Gram positive and incubated at 37° C., 250 rpm for 18 hours.
(§2) The antibiotic activity was determined using a Kirby-Bauer method according to Clinical Standard Laboratory Institute (CSLI) Guidelines (2017). Briefly, 180 μL of a 1 in 200 dilution (in LB or TSB) of overnight cultures of selected Gram negative and Gram positive bacteria were applied to an agar plate containing the solid growth medium, Mueller-Hinton agar (MHA). Sterile discs, inoculated with 50 μL of antibiotic, were first added to the agar plate before the plates were incubated for 24 hours at 37° C. Following incubation, the zone of inhibition (if it existed) was recorded.

[3] = test system: Staphylococcus aureus 15981; assay: Disc diffusion (Kirby-Bauer), zone of inhibition; type: cell-based; conditions: Staphylococcus aureus 15981; 500 μg/mL; '/' = no zone; read-out: Zone of inhibition
Protocol: as §1, §2

[4] = test system: MSSA 476; assay: Disc diffusion (Kirby-Bauer), zone of inhibition; type: cell-based, Staphylococcus aureus; conditions: Staphylococcus aureus, 500 μg/mL, '/' = no zone, read-out: Zone of inhibition
Protocol: as §1, §2

[5] = test system: MRSA 252; assay: Disc diffusion (Kirby-Bauer), zone of inhibition; type: cell-based, Staphylococcus aureus; conditions: Staphylococcus aureus, 500 μg/mL, '/' = no zone, read-out: Zone of inhibition
Protocol: as §1, §2

[6] = test system: MSSA 476; assay: MIC, broth micro-dilution; type: cell-based, Staphylococcus aureus; conditions: Staphylococcus aureus, MSSA, read-out: MIC
Protocol: as §1
(§3) Antibiotic MIC's were determined by a broth micro-dilution method according to Clinical Standard Laboratory Institute (CSLI) Guidelines (2017). Briefly, 96-well microplates, each containing 195 μL of the 1:2 dilution antibiotic in TSB, were inoculated with 5 μL of overnight cultured bacteria, diluted to give a starting bacterial concentration of 5×10^5 CFU/mL. The optical density of each well inoculated was recorded every 12 minutes over an 18 hour period at 37° C. The data from this was plotted in OriginPro8 (OriginLab) and sigmoidal curves fitted using the dose response function. Fitted values for each curve were used to calculate the MIC.

[7] = test system: MRSA 252; assay: MIC, broth micro-dilution; type: cell-based, Staphylococcus aureus; conditions: Staphylococcus aureus, read-out: MIC
Protocol: as §1, §3

[8] = test system: various Staphylococcus aureus strains; assay: Disc diffusion, Staphylococcus aureus strain study; type: cell-based; conditions: Staphylococcus aureus, 500 μg/mL
From the text: At this point in the study it was decided to perform a disc diffusion assay study on 50 S. aureus strains. […] Moreover, by employing a range of mutant strains of S. aureus with specific gene-deletions, it was believed that if particular strains were resistant to the lead compounds, it could provide insights on the likely protein target of the lead antibiotics. However, all six of the compounds utilized in this study were able to inhibit growth of all 50 strains of S. aureus assayed at the chosen concentration of 500 μg/mL concentration (Table 5).
as §1, §2

With `[C-]#[N+]C=Cc1ccc(O)cc1` [Compound 2, 4-(2-Isocyanovinyl)phenol] the “toxicity towards the HEK293 cell line (in words)” value [1] was “no toxicity”, the zone of inhibition at 500 µg/mL [2] was 20 mm and the zone of inhibition at 500 µg/mL [3] was 22 mm. It also gave a zone of inhibition at 500 µg/mL [4] of 20 mm, a zone of inhibition at 500 µg/mL [5] of 22 mm and an MIC [6] of 100 µg/mL (≈ 689 µM). The MIC [7] was 90 µg/mL (≈ 620 µM), the zone of inhibition at 500 µg/mL ([8]; MRSA, strain MRSA 252) was 16 mm and the zone of inhibition at 500 µg/mL ([8]; strain ASARM 61) was 15 mm. For the same compound, the zone of inhibition at 500 µg/mL ([8]; strain ASARM 70) was 14 mm, the zone of inhibition at 500 µg/mL ([8]; strain ASARM 71) was 14 mm and the zone of inhibition at 500 µg/mL ([8]; strain ASARM 72) was 12 mm. For the same compound, the zone of inhibition at 500 µg/mL ([8]; strain ASARM 73) was 16 mm, the zone of inhibition at 500 µg/mL ([8]; strain ASARM 75) was 15 mm and the zone of inhibition at 500 µg/mL ([8]; strain ASARM 76) was 14 mm. It also gave a zone of inhibition at 500 µg/mL ([8]; strain ASARM 77) of 14 mm, a zone of inhibition at 500 µg/mL ([8]; strain ASARM 79) of 13 mm and a zone of inhibition at 500 µg/mL ([8]; strain ASARM 80) of 13 mm. It also gave a zone of inhibition at 500 µg/mL ([8]; strain EOE 3) of 12 mm, a zone of inhibition at 500 µg/mL ([8]; strain EOE 23) of 16 mm and a zone of inhibition at 500 µg/mL ([8]; strain EOE 30) of 18 mm. It also gave a zone of inhibition at 500 µg/mL ([8]; strain EOE 35) of 14 mm, a zone of inhibition at 500 µg/mL ([8]; strain EOE 41) of 17 mm and a zone of inhibition at 500 µg/mL ([8]; strain EOE 42) of 16 mm. It also gave a zone of inhibition at 500 µg/mL ([8]; strain EOE 45) of 15 mm, a zone of inhibition at 500 µg/mL ([8]; strain EOE 52) of 14 mm and a zone of inhibition at 500 µg/mL ([8]; strain EOE 54) of 16 mm. It also gave a zone of inhibition at 500 µg/mL ([8]; strain EOE 57) of 18 mm, a zone of inhibition at 500 µg/mL ([8]; strain S139_7_7) of 14 mm and a zone of inhibition at 500 µg/mL ([8]; strain S197_1_1) of 25 mm. For the same compound, the zone of inhibition at 500 µg/mL ([8]; strain S197_1_8) was 16 mm, the zone of inhibition at 500 µg/mL ([8]; strain S197_1_9) was 16 mm and the zone of inhibition at 500 µg/mL ([8]; strain S197_1_10) was 15 mm. It also gave a zone of inhibition at 500 µg/mL ([8]; strain S295_1_1) of 20 mm, a zone of inhibition at 500 µg/mL ([8]; strain S295_1_2) of 14 mm and a zone of inhibition at 500 µg/mL ([8]; strain S295_1_3) of 18 mm. For the same compound, the zone of inhibition at 500 µg/mL ([8]; strain S364_5_11) was 26 mm, the zone of inhibition at 500 µg/mL ([8]; strain S364_5_12) was 22 mm and the zone of inhibition at 500 µg/mL ([8]; strain Sa_TPS 3026) was 14 mm. For the same compound, the zone of inhibition at 500 µg/mL ([8]; strain Sa_TPS 3072) was 16 mm, the zone of inhibition at 500 µg/mL ([8]; strain Sa_TPS 3092) was 20 mm and the zone of inhibition at 500 µg/mL ([8]; strain Sa_TPS 3097) was 15 mm. For the same compound, the zone of inhibition at 500 µg/mL ([8]; strain Sa_TPS 3103) was 16 mm, the zone of inhibition at 500 µg/mL ([8]; strain Sa_TPS 3104) was 15 mm and the zone of inhibition at 500 µg/mL ([8]; strain Sa_TPS 3106) was 15 mm. For the same compound, the zone of inhibition at 500 µg/mL ([8]; strain Sa_TPS 3118) was 18 mm, the zone of inhibition at 500 µg/mL ([8]; strain Sa_TPS 3133) was 14 mm and the zone of inhibition at 500 µg/mL ([8]; strain Sa_TPS 3134) was 14 mm. For the same compound, the zone of inhibition at 500 µg/mL ([8]; strain USFL 008) was 14 mm, the zone of inhibition at 500 µg/mL ([8]; strain USFL 009) was 14 mm and the zone of inhibition at 500 µg/mL ([8]; strain USFL 012) was 16 mm. For the same compound, the zone of inhibition at 500 µg/mL ([8]; strain USFL 016) was 14 mm, the zone of inhibition at 500 µg/mL ([8]; strain USFL 018) was 15 mm and the zone of inhibition at 500 µg/mL ([8]; strain USFL 020) was 14 mm. The zone of inhibition at 500 µg/mL ([8]; strain USFL 021) was 16 mm, the zone of inhibition at 500 µg/mL ([8]; strain USFL 028) was 15 mm and the zone of inhibition at 500 µg/mL ([8]; strain USFL 035) was 15 mm. It also gave a zone of inhibition at 500 µg/mL ([8]; strain USFL 054) of 14 mm.
